The source of these data is US8080252B2, “Compounds and methods of modulating angiogenesis” (The Cleveland Clinic Foundation, priority 2006, dated 2011).

Experiment [1] concerns αvβ3 integrin. Kind of experiment: Fibrinogen binding assay, WT and DiYF mouse lung endothelial cells (FACS). In kind it is cell-based. The following applies: 20 ng/ml VEGF or 1 mM MnCl2. The protocol:
To assess fibrinogen binding, semiconfluent wild type and DiYF mouse lung endothelial cells were serum starved for 4 h and further induced with 20 ng/ml VEGF-165, 20 ng/ml b-FGF or 1 mm MnCl2. Fluorescein isothiocyanate (FITC)-labeled fibrinogen was added at a final concentration of 200 nM for 45 min. […] Fluorescence-activated cell sorting (FACS) was performed using a FACS Calibur (Becton Dickinson, San Jose, Calif.) and data were analyzed using CellQuest software program.

For experiment [2], the system named is αvβ3 integrin. The experiment can be described thus: WOW-1 binding assay, WT and DiYF mouse lung endothelial cells (FACS). In kind it is cell-based. The following applies: 20 ng/ml VEGF or 1 mM MnCl2. The protocol:
Wild type and DiYF mouse lung endothelial cells were serum starved for 4 h and further stimulated with 20 ng/ml VEGF-165, 20 ng/ml b-FGF or 1 mm MnCl2 separately. WoW-1 Fab was added at a final concentration of […], followed by addition of Fluorescein isothiocyanate (FITC) conjugated goat anti-mouse IgG at 10 μg/ml. After 30 min cells were fixed with 3.7% formaldehyde/PBS for 15 min, washed twice with 1×PBS and FACS was performed using a FACS Calibur (Becton Dickinson, San Jose, Calif.) instrument and data were analyzed using CellQuest software program.

In experiment [3] the test system is HUVECs (Human Umbilical vascular endothelial cells). The following applies: HUVECs on Matrigel, 8 h. From the text:
The tube formation was observed using an inverted phase contrast microscope (Leica) and photographs were taken from each well. Using ImagePro software, the degree of tube formation was quantified by measuring the length of tubes in random fields.

The target of experiment [4] is T1, αvβ3 integrin (Homo sapiens, UniProt P05106+P06756).
T1 construct: Semiconfluent HUVECs were serum starved for 4 h and further stimulated with 20 ng/mL VEGF-A165 or VEGFDΔNΔC; endogenous in cells; host or cells: HUVEC
The experiment can be described thus: WOW-1 binding assay in HUVECs (αvβ3 integrin activation, FACS). The note with it: 20 ng/mL. In kind it is cell-based. The protocol:
Semiconfluent HUVECs were serum starved for 4 h and further stimulated with 20 ng/mL VEGF-A165 or VEGFDΔNΔC. WOW-1 Fab was added to a final concentration of 30 μg/mL, followed by addition of FITC-conjugated goat anti-mouse IgG at 10 μg/mL. After 30 min cells were fixed with 3.7% formaldehyde in PBS for 15 min, washed twice with PBS, and fluorescence-activated cell sorting (FACS) was performed using a FACS Calibur (Becton Dickinson, San Jose, Calif.) and data were analyzed using CellQuest software.
Semiconfluent HUVECs were transfected with various forms of c-Src or Src++. SYF, SYF+Src cells were serum starved for 4 h and further stimulated with 20 ng/mL VEGF-A165 or b-FGF. WOW-1 Fab was added at a final concentration of 30 μg/mL, followed by addition of FITC-conjugated goat anti-mouse IgG at 10 μg/mL. After 30 min cells were fixed with 3.7% formaldehyde/PBS for 15 min, washed twice with PBS, and FACS analysis was performed as described above.

In experiment [5] the test system is mouse lung endothelial cells. The following applies: 20 ng/ml VEGF, 8 h. The protocol:
The formation of vascular tube-like structures by wild type and DiYF mouse lung endothelial cells were assessed on the basement membrane matrix preparation. Six well plates were coated with 0.5 ml of Matrigel according to the manufacturer's instructions. Wild type and DiYF mouse lung endothelial cells were detached from the tissue culture flasks using 20 mM EDTA. Cells were washed twice with sterile 1×PBS and seeded on Matrigel coated plate. Medium was supplemented with or without 20 ng/ml VEGF and further incubated at 37° C. for 8 h. The tube formation was observed using an inverted phase contrast microscope (Leica) and photographs were taken from each well. Using ImagePro software, the degree of tube formation was quantified by measuring the length of tubes in random fields.

For experiment [6], the system named is mouse lung endothelial cells. The following applies: WT EC. The protocol:
Transwell tissue culture inserts were coated with various integrin ligands for 24 h at 4° C. Both WT and DiYF lung endothelial cells were trypsinized and 1×10^5 cells were added into each well. The lower chamber contained varying concentrations of VEGF-A165 (0-20 ng/ml). Cells were allowed to migrate for 12 h and fixed with 3.7% formaldehyde/PBS for 15 min and stained with 0.5% crystal violet. The non-migrated cells adhered to the top surface were removed and three random 10× fields were photographed using Leica inverted phase contrast microscope.

A further experiment concerns the target T2, VEGFR-2 (Mus musculus, UniProt P35918).
T2 construct: Serum starved wild type and DiYF endothelial cells were also treated with 20 ng/ml VEGF for 0-60 mins; endogenous in cells; host or cells: primary mouse lung endothelial cells (WT and DiYF knock-in, C57/Bl6)
The experiment can be described thus: VEGFR-2 phosphorylation time course in WT and DiYF mouse endothelial cells. In kind it is cell-based. The following applies: 20 ng/ml VEGF. The protocol: Serum starved wild type and DiYF endothelial cells were also treated with 20 ng/ml VEGF for 0-60 mins. Cell lysates were analyzed by Western blot using anti-integrin β3 [pY^747], anti-integrin [pY^759], anti-p-VEGFR-2, anti-VEGFR-2, anti-p-ERK1/2, anti-ERK1/2, anti-p-Akt, anti-Akt, anti-p-P38MAPK and anti-MAPK antibody. The wild type and DiYF endothelial cells were lysed and equal proteins from total cell lysates were subjected SDS-PAGS and analyzed by western blot using anti-VEGFR-2 and anti-CD-31 antibody.

The subject of experiment [7] is mouse lung microvascular endothelial cells.
Description: To assess the role of Src-mediated β3 integrin tyrosine phosphorylation in αvβ3 integrin dependent EC migration, HUVECs transfected with various forms of Src were evaluated in migration assays using VEGF as an agonist and vitronectin as a substrate. […] To further evaluate the c-Src mediated β3 integrin cytoplasmic tyrosine motifs phosphorylation in αvβ3 integrin dependent endothelial cell migration, wild type and DiYF mouse lung microvascular endothelial cells were transfected with wild type, dominant negative and catalytically active form of c-Src and stimulated with VEGF (FIG. 23 B).
Transwell tissue culture inserts were coated with αvβ3 integrin ligand vitronectin for 24 h at 4° C. Endothelial cells were transfected with various forms of c-Src or treated with inhibitors and were trypsinized; then 1×10^5 cells were added into each well. Cells were allowed to migrate for 12 h and fixed with 70% methanol for 15 min and stained with Giemsa. The non-migrated cells adhered to the top surface were removed and three random 10× fields were photographed using an inverted phase contrast microscopy.
For experiment [8], the system named is cells expressing αvβ3 integrin and VEGFR2. Kind of experiment: Angiogenesis of cells expressing αvβ3 integrin and VEGFR2 with stimulating peptides. In kind it is cell-based. The note with it: both in the presence and the absence of VEGF.
The next experiment concerns β3 integrin. Kind of experiment: β3 integrin tyrosine phosphorylation (Tyr-747 and 759) in HUVECs, Western blot. In kind it is cell-based, Human. The note with it: serum starved HUVECs, 400 nm and 800 nm SU1498. The protocol: αvβ3 integrin is expressed on proliferating endothelial cells during angiogenesis and vascular remodeling and the blockade of αvβ3 integrin suppressed angiogenesis in several in vivo models. Therefore, we assessed whether the blockade of αvβ3 affected tyrosine phosphorylation of β3 subunit. […] Cells were also treated with non-immune IgG as control. These cells were washed and further induced with VEGF for 5 min at 37° C. Cell lysates were analyzed for phosphorylation of β3 integrin (Tyr-747 and 759). […] Basal level of β3 integrin tyrosine phosphorylation remains unaffected irrespective of different blocking antibody treatment. To further examine consequences of αvβ3 integrin blocking antibodies, cell lysates were analyzed for tyrosine phosphorylation of VEGFR-2 (Tyr-1175).
Cytoplasmic domains of integrin β subunits are highly conserved and represents region of structural homology between the various groups. […] Cell lysates were analyzed for the phosphorylation of β3 integrin. […]
Cells were lysed in immunoprecipitation lysis buffer (1% Noniodet P-40, 150 mM NaCl, 50 mM Tris-HCL (pH 7.8), 2 mM EDTA, 10 mM NaF, 10 mM Na2P2O7, 2 mM Na3VO4 10 μg/mL leupeptin, 4 μg/mL pepstatin and 0.1 U/mL aprotinin). […] Bands were analyzed by densitomeric analysis using Kodak 1D software and fold changes were indicated.
Background: Immunoblotting shows a protein as a band on a membrane.

The next experiment deals with HUVECs. Kind of experiment: Cell migration assay of HUVECs on vitronectin, VEGF as agonist (Example 5). In kind it is cell-based, Human. The following applies: vitronectin as substrate.

Read-outs that look alike come from different tables or passages of the source. Non-standard residues stand in square brackets, D forms with d. No end group written: not given here. pY = N[C@@H](Cc1ccc(OP(=O)(O)O)cc1)C(=O)O

T2 sequence (P35918 20-1345): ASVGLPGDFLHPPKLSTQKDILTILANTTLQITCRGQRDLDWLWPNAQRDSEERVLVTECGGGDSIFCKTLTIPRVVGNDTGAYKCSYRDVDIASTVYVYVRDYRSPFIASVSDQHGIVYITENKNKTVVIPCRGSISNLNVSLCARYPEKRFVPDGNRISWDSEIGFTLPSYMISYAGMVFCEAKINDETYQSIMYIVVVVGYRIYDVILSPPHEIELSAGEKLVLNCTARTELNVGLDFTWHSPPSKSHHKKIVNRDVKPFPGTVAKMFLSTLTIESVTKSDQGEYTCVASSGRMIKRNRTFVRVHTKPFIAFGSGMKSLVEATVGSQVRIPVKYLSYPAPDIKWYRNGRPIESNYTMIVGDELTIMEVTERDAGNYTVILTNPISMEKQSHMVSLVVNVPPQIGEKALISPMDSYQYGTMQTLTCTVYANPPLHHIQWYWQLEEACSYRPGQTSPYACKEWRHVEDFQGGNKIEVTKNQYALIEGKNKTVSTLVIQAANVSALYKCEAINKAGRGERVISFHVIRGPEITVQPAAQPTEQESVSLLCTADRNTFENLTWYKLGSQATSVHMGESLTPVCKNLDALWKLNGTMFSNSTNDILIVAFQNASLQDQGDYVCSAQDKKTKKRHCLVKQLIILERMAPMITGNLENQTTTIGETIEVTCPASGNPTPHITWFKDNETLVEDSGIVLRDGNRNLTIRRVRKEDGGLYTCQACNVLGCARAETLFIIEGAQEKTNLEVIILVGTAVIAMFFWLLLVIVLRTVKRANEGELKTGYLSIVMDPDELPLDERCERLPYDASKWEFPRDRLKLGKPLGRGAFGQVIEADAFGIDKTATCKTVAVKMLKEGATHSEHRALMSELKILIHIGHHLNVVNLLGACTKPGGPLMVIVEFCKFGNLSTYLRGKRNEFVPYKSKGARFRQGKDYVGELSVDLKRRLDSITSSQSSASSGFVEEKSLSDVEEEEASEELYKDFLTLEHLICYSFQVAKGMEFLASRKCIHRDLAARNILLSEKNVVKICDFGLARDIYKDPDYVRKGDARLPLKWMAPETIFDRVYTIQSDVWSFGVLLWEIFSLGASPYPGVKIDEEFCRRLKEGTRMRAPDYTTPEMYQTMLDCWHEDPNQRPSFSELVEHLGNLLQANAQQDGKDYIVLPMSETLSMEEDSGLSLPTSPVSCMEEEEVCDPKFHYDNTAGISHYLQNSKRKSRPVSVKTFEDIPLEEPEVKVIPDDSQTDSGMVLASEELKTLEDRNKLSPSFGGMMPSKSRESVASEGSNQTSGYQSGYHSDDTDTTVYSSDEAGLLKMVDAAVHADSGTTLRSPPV
T1 sequence (P06756 31-1048): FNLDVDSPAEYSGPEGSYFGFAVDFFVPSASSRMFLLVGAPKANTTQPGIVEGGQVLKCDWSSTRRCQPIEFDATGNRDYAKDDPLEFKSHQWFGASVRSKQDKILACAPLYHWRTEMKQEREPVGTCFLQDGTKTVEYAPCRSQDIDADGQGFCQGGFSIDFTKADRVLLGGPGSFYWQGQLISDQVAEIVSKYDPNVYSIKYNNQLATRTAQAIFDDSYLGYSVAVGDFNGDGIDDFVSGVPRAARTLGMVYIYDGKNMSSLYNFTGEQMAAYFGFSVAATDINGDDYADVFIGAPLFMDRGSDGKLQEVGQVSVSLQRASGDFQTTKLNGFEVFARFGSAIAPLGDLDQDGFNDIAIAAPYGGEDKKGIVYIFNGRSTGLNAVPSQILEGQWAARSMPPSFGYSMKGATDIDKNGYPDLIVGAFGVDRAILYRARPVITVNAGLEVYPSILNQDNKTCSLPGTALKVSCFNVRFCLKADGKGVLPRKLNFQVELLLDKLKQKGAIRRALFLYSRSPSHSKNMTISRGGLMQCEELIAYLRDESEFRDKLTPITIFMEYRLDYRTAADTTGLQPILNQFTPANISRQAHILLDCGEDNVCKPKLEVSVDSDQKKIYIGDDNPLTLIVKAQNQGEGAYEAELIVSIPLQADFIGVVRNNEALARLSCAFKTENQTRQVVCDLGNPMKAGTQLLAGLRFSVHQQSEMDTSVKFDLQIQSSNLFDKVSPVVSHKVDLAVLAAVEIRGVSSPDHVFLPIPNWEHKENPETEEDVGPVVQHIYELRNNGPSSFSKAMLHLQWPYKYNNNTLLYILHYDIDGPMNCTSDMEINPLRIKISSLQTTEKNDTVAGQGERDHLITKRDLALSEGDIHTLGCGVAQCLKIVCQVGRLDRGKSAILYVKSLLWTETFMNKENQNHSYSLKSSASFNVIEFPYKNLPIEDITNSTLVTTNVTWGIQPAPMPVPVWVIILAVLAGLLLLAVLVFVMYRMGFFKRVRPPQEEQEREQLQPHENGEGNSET
T1 sequence (P05106 27-788): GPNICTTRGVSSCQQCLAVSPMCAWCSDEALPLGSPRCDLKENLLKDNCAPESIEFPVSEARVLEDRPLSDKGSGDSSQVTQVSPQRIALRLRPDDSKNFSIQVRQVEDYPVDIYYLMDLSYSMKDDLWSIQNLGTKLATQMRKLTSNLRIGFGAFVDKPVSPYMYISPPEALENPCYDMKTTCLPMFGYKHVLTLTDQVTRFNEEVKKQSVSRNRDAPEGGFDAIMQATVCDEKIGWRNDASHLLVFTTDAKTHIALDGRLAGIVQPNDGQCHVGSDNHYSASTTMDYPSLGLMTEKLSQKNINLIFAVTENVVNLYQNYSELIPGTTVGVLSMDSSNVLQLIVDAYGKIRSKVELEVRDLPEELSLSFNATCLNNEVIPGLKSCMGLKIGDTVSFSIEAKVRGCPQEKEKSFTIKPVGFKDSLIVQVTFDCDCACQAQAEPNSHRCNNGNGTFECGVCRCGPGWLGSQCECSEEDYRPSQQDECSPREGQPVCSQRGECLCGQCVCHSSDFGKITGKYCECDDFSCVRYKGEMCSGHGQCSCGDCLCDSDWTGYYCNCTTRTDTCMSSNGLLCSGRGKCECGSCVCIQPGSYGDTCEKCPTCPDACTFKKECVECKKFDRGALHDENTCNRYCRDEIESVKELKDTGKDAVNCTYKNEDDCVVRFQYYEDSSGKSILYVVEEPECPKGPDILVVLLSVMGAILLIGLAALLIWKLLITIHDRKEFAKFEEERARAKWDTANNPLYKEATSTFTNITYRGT

Turning to `[Cl][Mn][Cl]` [MnCl2, reference compound], the “increase of fibrinogen binding” value with αvβ3 integrin [1] (DiYF EC) is recorded as 17 fold; in the experiment with αvβ3 integrin [1] (WT EC) it was “at least 40 fold”. The “increase in WOW-1 binding” value in the experiment on αvβ3 integrin [2] (DiYF EC) amounted to 14 fold; in the experiment on αvβ3 integrin [2] (WT EC), 30 fold.

As for VEGF, the “endothelial cell tube formation induced” value in [3] was “at least 450 μm/mm^2”. The “increase of WOW-1 binding to EC compared to resting cells” value on αvβ3 integrin [4] came to 6 fold. Moreover, in experiment [5] (DiYF EC), the “effect on the length of the tubes” value was “little effect”. Further, the “increase in the length of the tubes” value in [5] (WT EC) is “about 3 fold”. Further, the “increase of migration compared to untreated EC” value in [6] (VEGF 5 ng/ml) turned out to be 1.5 fold; in [6] (VEGF 10 ng/ml), 2.5 fold; in [6] (VEGF 20 ng/ml), 2.9 fold. The entries for the “maximum increase in VEGFR-2 phosphorylation over control” value on VEGFR-2 (DiYF EC) and on VEGFR-2 (WT EC) were 2.5 fold and 6 fold, respectively. In addition, the “increase of fibrinogen binding” value is given as 3 fold with αvβ3 integrin [1] (DiYF EC) and “at least 6 fold” with αvβ3 integrin [1] (WT EC). Further, the “increase in WOW-1 binding” value was 3.5 fold with αvβ3 integrin [2] (DiYF EC) and 9 fold with αvβ3 integrin [2] (WT EC). Further, the “increase in endothelial cell migration” value in experiment [7] (CA-Src transfected wild type endothelial cells) was found to be 3.5 fold; in experiment [7] (WT-Src transfected wild type endothelial cells), 2.5 fold.

On to “KEATSTFTNITYpRGT-COOH (KEATSTFTNIT[pY]RGT-OH; N-terminus assumed; SMILES CC[C@H](C)[C@H](NC(=O)[C@H](CC(N)=O)NC(=O)[C@@H](NC(=O)[C@H](Cc1ccccc1)NC(=O)[C@@H](NC(=O)[C@H](CO)NC(=O)[C@@H](NC(=O)[C@H](C)NC(=O)[C@H](CCC(=O)O)NC(=O)[C@@H](N)CCCCN)[C@@H](C)O)[C@@H](C)O)[C@@H](C)O)C(=O)N[C@H](C(=O)N[C@@H](Cc1ccc(OP(=O)(O)O)cc1)C(=O)N[C@@H](CCCNC(=N)N)C(=O)NCC(=O)N[C@H](C(=O)O)[C@@H](C)O)[C@@H](C)O; listed as Homo sapiens) [SEQ ID NO: 15, stimulating peptide; β3 integrin cytoplasmic peptide specific for tyrosine-759]”, for which the effect on angiogenesis entry in experiment [8] was “promote angiogenesis”.

`CC(C)c1cc(/C=C(\C#N)C(=O)NCCCc2ccccc2)cc(C(C)C)c1O` [SU1498]: in the experiment with β3 integrin, the “effect on VEGF induced β3 integrin cytoplasmic tyrosine residue phosphorylation” value was “significantly reduced”. The “effect on EC migration triggered by VEGF” value in the experiment on HUVECs was “reduced EC migration triggered by VEGF”.

Take “YGRKKRRQRRRGKEATSTFTNITYpRGT-COOH (YGRKKRRQRRRGKEATSTFTNIT[pY]RGT-OH; N-terminus assumed; SMILES CC[C@H](C)[C@H](NC(=O)[C@H](CC(N)=O)NC(=O)[C@@H](NC(=O)[C@H](Cc1ccccc1)NC(=O)[C@@H](NC(=O)[C@H](CO)NC(=O)[C@@H](NC(=O)[C@H](C)NC(=O)[C@H](CCC(=O)O)NC(=O)[C@H](CCCCN)NC(=O)CNC(=O)[C@H](CCCNC(=N)N)NC(=O)[C@H](CCCNC(=N)N)NC(=O)[C@H](CCCNC(=N)N)NC(=O)[C@H](CCC(N)=O)NC(=O)[C@H](CCCNC(=N)N)NC(=O)[C@H](CCCNC(=N)N)NC(=O)[C@H](CCCCN)NC(=O)[C@H](CCCCN)NC(=O)[C@H](CCCNC(=N)N)NC(=O)CNC(=O)[C@@H](N)Cc1ccc(O)cc1)[C@@H](C)O)[C@@H](C)O)[C@@H](C)O)C(=O)N[C@H](C(=O)N[C@@H](Cc1ccc(OP(=O)(O)O)cc1)C(=O)N[C@@H](CCCNC(=N)N)C(=O)NCC(=O)N[C@H](C(=O)O)[C@@H](C)O)[C@@H](C)O; listed as Homo sapiens) [SEQ ID NO: 13, stimulating peptide]”: the effect on angiogenesis entry in experiment [8] is listed as “promote angiogenesis”.
